# In patent US7144922B2, “Method and compound for the prophylaxis or treatment of an immunodeficiency condition, such as AIDS” (priority 2002, dated 2006):
# Where two headings read alike, the source gives them in different places.
# How the values were obtained:
# [1] = tested on: peripheral blood mononuclear cells (PBMC); assay: Toxicity testing in PBMC (tetrazolium MTS reduction); type: cell-based
# Description: (§1) This assay was used to test the effectiveness of anti-HIV drug monotherapy in peripheral blood mononuclear cells (PBMC) infected with clinical isolates of HIV-1. Drug efficacy was determined by the production of supernatant HIV-1 p24. Drug-induced cytotoxicity was determined by the metabolic reduction of tetrazolium salts (MTS; Promega).
# (§2) The antiviral drug or agent of the invention, H2K-1001 (90i), was solubilized. PBMCs, stimulated with PHA (phytohemagglutinin) for three days were employed throughout. Virus stocks (U.S. Clinical isolates) grown in PBMCs only, that past the necessary quality controls (i.e., replicate to high titer in PBMCs and meet the requirements as to genotype and phenotype) were rapidly thawed and maintained on ice until required for infection.
# (§3) Half-log serial dilutions of test drugs and controls were prepared in tissue culture media (RPMI 1640 without phenol red, supplemented with 10% heat inactivated fetal bovine serum, 1% L-Glutamine, 1% Pen/Strep and 50 μg/ml gentamicin). Virus and cell controls were included on each test plate. Virus was added after cells and drugs were mixed. Cell, drug and virus containing cultures were incubated for seven (7) days with an interim feeding at day three or four.
# (§4) Supernatants were sampled at seven days for p24 determination by antigen capture ELISA. Cytotoxicity was measured by the metabolic reduction of the tetrazolium salt according to the manufacturer's (Promega) recommendations.
# (§5) The drug analysis reports from these studies are provided below in Tables 7–10. Efficacy (EC50) and viability (IC50) determinations were made using Cho and Cho Median Effect Equation, as noted above. Efficacy is expressed as the 50% effective concentration (EC50) and drug induced toxicity as the 50% inhibitory concentration (IC50).
# [2] = tested on: HIV-1 (RF); assay: Antiviral drug assay in CEM-SS cells infected with HIV-1 RF (efficacy, tetrazolium reduction); type: cell-based; details: for Efficacy % CC (cell control): CEM-SS, HIV-1 (RF), day 6; for EC50: read-out: 50% effective concentration (EC50)
# Description: Antiviral Drug Assay in CEM-SS Cells
# (§6) This assay was used to test the effectiveness of anti-HIV drug monotherapy in the established T-cell line CEM-SS infected with HIV-1RF, HIV-1IIIb, HIV-2ROD, or other cytolytic variants of HIV. The antiviral agent and control (known antiviral drug—AZT) efficacy and cytotoxicity were determined by the metabolic reduction of the tetrazolium salt MTS (available from Promega).
# (§7) The drugs were solubilized in DMSO (dimethyl sulfoxide). Three to ten vials of the antiviral agent and AZT were prepared and maintained at −70° C. CEM-SS cells were in logarithmic growth phase at the time of experimentation. Virus (HIV-1RF) stocks that past the necessary quality controls (killing effect on the type of cells used, limited variability, etc) were thawed and maintained on ice until required for addition.
# (§8) Half-log serial dilutions of the antiviral agent or compound of the invention, H2K1001 (90i), were made in tissue culture media (RPMI 1640 without phenol red, supplemented with 10% heat inactivated fetal bovine serum, 1% L-Glutamine, 1% Pen/Strep and 50 ug/ml gentimycin). Virus, cell, drug and diluent (ethanol) controls were included for these tests. Virus was added after cells and drugs were mixed. Cell, drug, and virus containing cultures were incubated for six (6) days without additional feeding at which time the cultures were evaluated macrosopically and microscopically for cell toxicity, and the tetrazolium salt MTS was added for quantitation by the colorimetric determination of formazan production (optical density).
# (§9) Drug efficacy and cytotoxicity effects were determined six days after infection by the metabolic reduction of the tetrazolium salt XTT to its' formazan by surviving cells and was quantitated by determination of optical density at 450 nm with background subtraction at 650 nm (Tables 1–4).
# (§10) The drug plate analysis reports from this assay are provided below in Tables 1–4. Calculated endpoints (EC50, etc.) were determined using Cho and Cho Median Effect Equation (Daids Virology Manual for HIV Laboratories, Compiled by The Division of Aids, National Institute of Allergy and Infectious Diseases, National Institutes of Health and Collaborating Investigators, Version January 1997).
# [3] = tested on: susceptible isolates; assay: AZT in studies of susceptible isolates in PBMCs; type: cell-based, HIV-1; details: typical value
# Description: Testing in PBMCs was directed against a primary clinical isolate of HIV-1 P2, which is resistant to a variety of non-nucleoside inhibitors or HIV-1 reverse transcriptase and, in our hands, AZT. Testing AZT (control) against this virus, as expected, produced a relatively high EC50 of 3 uM. Typically AZT produces EC50s of less than 0.01 uM in studies of susceptible isolates in PBMCs.
# [4] = tested on: CEM-SS T-lymphoblastoid cells; assay: Toxicity testing in CEM-SS T-lymphoblastoid cells (tetrazolium reduction); type: cell-based; details: for Toxicity % CC (cell control): day 6; for IC50: read-out: 50% inhibitory concentration, IC50 (drug induced toxicity)
# Description: as §6, §7, §8, §9, §10
# [5] = tested on: HIV-1 (P2); assay: Antiviral drug assay in PBMC infected with clinical isolate HIV-1 P2 (supernatant p24 ELISA); type: cell-based; details: for Efficacy % p24 Reduction: HIV-1 P2, day 7
# Description: as §1, §2, §3, §4, §5
smiles,measurement,setting,value
"Cc1cn([C@H]2C[C@H](N=[N+]=[N-])[C@@H](CO)O2)c(=O)[nH]c1=O [AZT, reference compound]",Toxicity % CC (cell control),[1]; 0.001 uM,100%
same,Toxicity % CC (cell control),[1]; 0.003 uM,111%
same,Toxicity % CC (cell control),[1]; 0.01 uM,100%
same,Toxicity % CC (cell control),[1]; 0.03 uM,99%
same,Toxicity % CC (cell control),[1]; 0.10 uM,101%
same,Toxicity % CC (cell control),[1]; 0.32 uM,99%
same,Toxicity % CC (cell control),[1]; 1 uM,105%
same,Toxicity % CC (cell control),[1]; 3 uM,105%
same,Toxicity % CC (cell control),[1]; 10 uM,104%
same,Efficacy % CC (cell control),[2]; 0.001 uM,42%
same,Efficacy % CC (cell control),[2]; 0.003 uM,44%
same,Efficacy % CC (cell control),[2]; 0.01 uM,90%
same,Efficacy % CC (cell control),[2]; 0.03 uM,83%
same,Efficacy % CC (cell control),[2]; 0.1 uM,85%
same,Efficacy % CC (cell control),[2]; 0.3 uM,82%
same,Efficacy % CC (cell control),[2]; 1 uM,90%
same,Efficacy % CC (cell control),[2]; 3 uM,82%
same,Efficacy % CC (cell control),[2]; 10 uM,87%
same,EC50,"[2]; CEM-SS cells, HIV-1 RF",~3.5 nM
same,EC50,[3],< 10 nM
same,Toxicity % CC (cell control),"[4]; 0.001 uM, CEM-SS",93%
same,Toxicity % CC (cell control),"[4]; 0.003 uM, CEM-SS",100%
same,Toxicity % CC (cell control),"[4]; 0.01 uM, CEM-SS",109%
same,Toxicity % CC (cell control),"[4]; 0.03 uM, CEM-SS",104%
same,Toxicity % CC (cell control),"[4]; 0.1 uM, CEM-SS",102%
same,Toxicity % CC (cell control),"[4]; 0.3 uM, CEM-SS",102%
same,Toxicity % CC (cell control),"[4]; 1 uM, CEM-SS",96%
same,Toxicity % CC (cell control),"[4]; 3 uM, CEM-SS",95%
same,Toxicity % CC (cell control),"[4]; 10 uM, CEM-SS",95%
same,IC50,[4]; CEM-SS cells,> 10 µM
same,Efficacy % p24 Reduction,[5]; 0.001 uM,12%
same,Efficacy % p24 Reduction,[5]; 0.003 uM,21%
same,Efficacy % p24 Reduction,[5]; 0.01 uM,14%
same,Efficacy % p24 Reduction,[5]; 0.03 uM,10%
same,Efficacy % p24 Reduction,[5]; 0.10 uM,20%
same,Efficacy % p24 Reduction,[5]; 0.32 uM,26%
same,Efficacy % p24 Reduction,[5]; 1 uM,22%
same,Efficacy % p24 Reduction,[5]; 3 uM,51%
same,Efficacy % p24 Reduction,[5]; 10 uM,77%
same,EC50,"[5]; clinical isolate HIV-1 P2, read-out: EC50",3000 nM
"O=C(OCCOCCOC(=O)c1ccccc1)c1ccccc1 [H2K1001 (90i), diethylene glycol dibenzoate]",Toxicity % CC (cell control),[1]; 0.01 ug/ml,94%
same,Toxicity % CC (cell control),[1]; 0.03 ug/ml,103%
same,Toxicity % CC (cell control),[1]; 0.10 ug/ml,91%
same,Toxicity % CC (cell control),[1]; 0.33 ug/ml,94%
same,Toxicity % CC (cell control),[1]; 1 ug/ml,97%
same,Toxicity % CC (cell control),[1]; 3 ug/ml (3.2 in Table 11),94%
same,Toxicity % CC (cell control),[1]; 10 ug/ml,100%
same,Toxicity % CC (cell control),[1]; 32 ug/ml,104%
same,Toxicity % CC (cell control),[1]; 100 ug/ml,111%
same,IC50,"[1]; no unit printed, read-out: IC50 (drug induced toxicity)",> 100 µg/mL
same,IC50,"[1]; read-out: 50% inhibitory concentration, IC50 (drug induced toxicity)",> 100 µg/mL
same,Efficacy % CC (cell control),[2]; 0.01 ug/ml,42%
same,Efficacy % CC (cell control),[2]; 0.03 ug/ml,80%
same,Efficacy % CC (cell control),[2]; 0.1 ug/ml,87%
same,Efficacy % CC (cell control),[2]; 0.3 ug/ml,83%
same,Efficacy % CC (cell control),[2]; 1 ug/ml,84%
same,Efficacy % CC (cell control),[2]; 3 ug/ml,84%
same,Efficacy % CC (cell control),[2]; 10 ug/ml,82%
same,Efficacy % CC (cell control),[2]; 33 ug/ml,86%
same,Efficacy % CC (cell control),[2]; 100 ug/ml,88%
same,50% effective concentration (EC50),"[2]; CEM-SS cells, HIV-1 RF, listed as 90i",approximately 0.020 ug/ml
same,EC50,"[2]; Human immunodeficiency virus 1, CEM-SS, CEM-SS cells, HIV-1 RF",0.02 µg/mL
same,Toxicity % CC (cell control),"[4]; 0.01 ug/ml, CEM-SS",100%
same,Toxicity % CC (cell control),"[4]; 0.03 ug/ml, CEM-SS",103%
same,Toxicity % CC (cell control),"[4]; 0.1 ug/ml, CEM-SS",104%
same,Toxicity % CC (cell control),"[4]; 0.3 ug/ml, CEM-SS",100%
same,Toxicity % CC (cell control),"[4]; 1 ug/ml, CEM-SS",100%
same,Toxicity % CC (cell control),"[4]; 3 ug/ml, CEM-SS",99%
same,Toxicity % CC (cell control),"[4]; 10 ug/ml, CEM-SS",93%
same,Toxicity % CC (cell control),"[4]; 33 ug/ml, CEM-SS",94%
same,Toxicity % CC (cell control),"[4]; 100 ug/ml, CEM-SS",106%
same,"50% inhibitory concentration, IC50 (drug induced toxicity)","[4]; CEM-SS cells, listed as 90i",> 100 µg/mL
same,IC50,"[4]; Homo sapiens, CEM-SS",> 100 µg/mL
same,Efficacy % p24 Reduction,[5]; 0.01 ug/ml,23%
same,Efficacy % p24 Reduction,[5]; 0.03 ug/ml,25%
same,Efficacy % p24 Reduction,[5]; 0.10 ug/ml,36%
same,Efficacy % p24 Reduction,[5]; 0.33 ug/ml,36%
same,Efficacy % p24 Reduction,[5]; 1 ug/ml,53%
same,Efficacy % p24 Reduction,[5]; 3 ug/ml (3.2 in Table 11),87%
same,Efficacy % p24 Reduction,[5]; 10 ug/ml,95%
same,Efficacy % p24 Reduction,[5]; 32 ug/ml,94%
same,Efficacy % p24 Reduction,[5]; 100 ug/ml,93%
same,EC50,"[5]; Human immunodeficiency virus 1, PBMC, clinical isolate HIV-1 P2, read-out: 50% effective concentration (EC50)",0.8 µg/mL
same,50% effective concentration (EC50),"[5]; clinical isolate HIV-1 P2, listed as 90i",approximately 0.8 ug/ml
